Data on six molecules can be found in article PMC12417622 (Biopharmaceutics & Drug Disposition, 2025).

Data set [1] has as its target T1, hOAT3 (Homo sapiens, UniProt Q8TCC7).
T1 sequence (Q8TCC7 1-542): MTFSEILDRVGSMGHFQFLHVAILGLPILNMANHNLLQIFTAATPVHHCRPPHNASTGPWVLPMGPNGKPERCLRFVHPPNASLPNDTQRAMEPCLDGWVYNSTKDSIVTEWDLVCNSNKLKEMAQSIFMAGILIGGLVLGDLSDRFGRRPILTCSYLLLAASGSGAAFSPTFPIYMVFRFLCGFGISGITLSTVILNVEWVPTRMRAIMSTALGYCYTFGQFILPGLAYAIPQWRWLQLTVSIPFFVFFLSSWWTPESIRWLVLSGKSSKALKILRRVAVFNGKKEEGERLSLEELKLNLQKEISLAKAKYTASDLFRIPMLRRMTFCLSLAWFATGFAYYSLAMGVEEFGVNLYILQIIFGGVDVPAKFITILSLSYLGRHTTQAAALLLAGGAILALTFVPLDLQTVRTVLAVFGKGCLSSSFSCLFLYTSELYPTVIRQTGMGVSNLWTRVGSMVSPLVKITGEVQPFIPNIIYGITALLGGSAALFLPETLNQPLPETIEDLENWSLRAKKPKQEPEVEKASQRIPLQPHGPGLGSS
Kind of data set: Uptake of 6-CF in HEK-pBK and HEK-hOAT3 cells and its inhibition by probenecid. Also on record: expressed in transfected cells; host or cells: HEK293 (HEK-hOAT3), gift of Dr. Atsushi Yonezawa, Kyoto University Hospital; mock control HEK-pBK (pBKCMV vector). It counts as cell-based. As to conditions: 5 μM 6-CF, 2 min, 37°C. On the procedure:
The cells were incubated for 2 min at 37°C with 5 µM 6‐CF (pH 7.4) in the absence or presence of probenecid (100 µM).

The target in data set [2] is T1, hOAT3. Also on record: expressed in transfected cells; host or cells: HEK293 (HEK-hOAT3), gift of Dr. Atsushi Yonezawa, Kyoto University Hospital; mock control HEK-pBK (pBKCMV vector). The note with it: cited from earlier work; for Ki: read-out: Ki against hOAT3.
Data set [3] concerns the target T1, hOAT3. Kind of data set: Inhibition of hOAT3-mediated methotrexate transport by febuxostat in HEK-hOAT3 cells (inhibition plot, Dixon plot). Also on record: expressed in transfected cells; host or cells: HEK293 (HEK-hOAT3), gift of Dr. Atsushi Yonezawa, Kyoto University Hospital; mock control HEK-pBK (pBKCMV vector). In kind it is cell-based. On the procedure: (§1) The entire LC gradient was 16 min.

Details of data set [4]: method as in review report of febuxostat (Feburic Tablet). The note with it: rats, 5 min after febuxostat 1 mg/kg i.v.; ref review report of febuxostat (Feburic Tablet); cited from earlier work.
On the set-up of data set [5]: method as in Zhang et al. [2014]. The note with it: human, 40–120 mg febuxostat orally; ref Zhang et al. [2014]; cited from earlier work.
Data set [6] in a line: Cmax of febuxostat after oral administration in human. In kind it is in vivo. The note with it: 40–120 mg febuxostat orally, estimated from Cmax and protein binding.
On the set-up of data set [7]: method as in Yu et al. [2023]. As to conditions: rats; ref Yu et al. [2023]; cited from earlier work.
Details of data set [8]: method as in Bleyer [1978]. As to conditions: within 30 h of administration; ref Bleyer [1978]; cited from earlier work.
The test system of the next data set is rOAT3. More on the design: method as in Nozaki et al. [2004]. As to conditions: rat kidney slices; ref Nozaki et al. [2004]; cited from earlier work.
Data set [9] deals with T1, hOAT3. As to conditions: 10 μM methotrexate, 2, 5, 10 and 15 min, 37°C, all time points.
Data set [10] in a line: Pharmacokinetics of methotrexate after intravenous administration with and without febuxostat in rats. It counts as in vivo, rat. As to conditions: for Vd / half-life / k el / AUC(0-t) / clearance: male, Wistar, rat, plasma, iv, 2 mg/kg, methotrexate 2 mg/kg i.v., mean ± S.D.; for Vd / half-life / k el: n = 4; for AUC(0-t): n = 4, read-out: AUC0–90 min (converted); for clearance: n = 4, read-out: CLtot.
From the text: Nine‐week‐old male Wistar rats (SLC Japan Co., Shizuoka, Japan) were used for the pharmacokinetics study. All animal procedures were approved by the Animal Experiments Committee of The University of Osaka (No. 03‐018‐000) and conducted in accordance with the Japanese Law for the Protection and Management of Animals, the Standards Relating to the Care and Management of Laboratory Animals and Relief of Pain, and other relevant regulations and guidelines for animal experimentation. The rats were anesthetized with an intraperitoneal injection of a mixture of medetomidine, midazolam, and butorphanol at doses of 0.38, 2.0, and 2.5 mg/kg, respectively. Polyethylene catheters were implanted into the femoral vein and femoral artery to administer the drug and facilitate frequent blood collection. […] The area under the plasma concentration–time curve from 0 to 90 min (AUC0–90 min) was calculated using the trapezoidal rule. Moreover, the systemic clearance (CLtot), elimination rate constant from the central compartment (Kel), distribution volume of the central compartment (Vd), and half‐life (T1/2) were calculated according to the procedures for 2‐compartmental analysis.
as §1

Substrate in data set [11]: CN(Cc1cnc2nc(N)nc(N)c2n1)c1ccc(C(=O)N[C@@H](CCC(=O)O)C(=O)O)cc1
The data set can be described thus: cells, lysate or membranes named. As to conditions: other: 2 min, 37°C, pH 7.4, uptake in HEK-pBK subtracted from HEK-hOAT3, mean ± S.E.

[12] abbreviates: HEK-hOAT3 cells, estron-3-sulfate as substrate, ref Tang et al. [2022].

Where two headings read alike, the source gives them in different places.

For the molecule `O=C(O)c1ccc(C(=O)O)c(-c2c3ccc(=O)cc-3oc3cc(O)ccc23)c1` [6‐CF, 6‐carboxyfluorescein], the “Uptake in HEK-hOAT3 cells relative to HEK-pBK cells” value on hOAT3 [1] (pH 7.4) is listed as “approximately 17.4 fold”.
`Cc1nc(-c2ccc(OCC(C)C)c(C#N)c2)sc1C(=O)O[C@@H]1O[C@H](C(=O)O)[C@@H](O)[C@H](O)[C@H]1O` [febuxostat acyl‐β‐D‐glucuronide]: at hOAT3 [2] (setting [12]), the “inhibitory type against hOAT3” value is listed as “competitive” and the Ki was 6110 nM.
On to `Cc1nc(-c2ccc(OCC(C)C)c(C#N)c2)sc1C(=O)O` [febuxostat], for which, on hOAT3 [3], the 50% inhibitory concentration (IC50) was determined as 650 ± 130 nM and the Ki turned out to be 630 ± 10 nM. Also, the “inhibitory type against hOAT3-mediated transport of methotrexate” value against hOAT3 [3] (Dixon plot, HEK-hOAT3 cells) is reported as “noncompetitive”. For the same molecule, the “ratio of unbound Cmax to Ki value” at hOAT3 [3] (human unbound Cmax 0.12–0.30 μM, Ki against hOAT3 0.63 μM) is recorded as 0.19–0.48. Moreover, in data set [4], the “plasma concentration of febuxostat” value is “approximately 24.1 μM”. In data set [5], the peak concentration (Cmax) is 5.3 to 13.5 µM. In addition, in data set [6], the “unbound Cmax (clinical concentration)” value is 0.12 to 0.30 µM. Also, the inhibition constant (Ki) at hOAT3 [2] (ref Tang et al. ([2022])) was 550 ± 150 nM. For the same molecule, in data set [7], the protein binding is listed as 98.4%.
Regarding `CN(Cc1cnc2nc(N)nc(N)c2n1)c1ccc(C(=O)N[C@@H](CCC(=O)O)C(=O)O)cc1` [methotrexate], the “excreted in urine as unchanged drug” value in [8] is “approximately 95%”. Moreover, the “share of renal basolateral uptake for which rOAT3 is responsible” value with rOAT3 was “approximately 50%”. Also, the “Uptake in HEK-hOAT3 cells compared with HEK-pBK cells” value at hOAT3 [9] is “significantly higher”. In addition, in data set [10] (febuxostat (+) 1 mg/kg i.v.), the Vd stood at 0.433 ± 0.088 L/kg, the half-life is 14 ± 4.6 min, the k el is 0.000833 s⁻¹ and the AUC(0-t) is 4350 ng·h/mL. In data set [10] (febuxostat (+) 1 mg/kg i.v.), the clearance came to 8.02 ± 2.03 mL/min/kg. Also, in data set [10] (febuxostat (−)), the volume of distribution (Vd) was found to be 0.378 ± 0.061 L/kg, the half-life was 6.4 ± 1.4 min, the k el was 0.00183 s⁻¹ and the AUC(0-t) is 2170 ng·h/mL. In addition, the clearance in data set [10] (febuxostat (−)) worked out at 15.9 ± 3.56 mL/min/kg. Moreover, the “Plasma concentration of methotrexate with concomitant febuxostat” value in data set [10] (methotrexate 2 mg/kg i.v. with febuxostat 1 mg/kg i.v. vs without, at 15, 30, 60 and 90 min) was “significantly increased”.
Take `CCCN(CCC)S(=O)(=O)c1ccc(C(=O)O)cc1` [probenecid]: the “Effect on uptake of 6-CF in HEK-hOAT3 cells” value on hOAT3 [1] (100 μM probenecid) is “potently inhibited”.

B1: hOAT3 (Homo sapiens) (protein)
chain: T1 sequence (Q8TCC7 1-542)
For the molecule B1, in [11], the Michaelis-Menten constant (Km) was found to be 46.4 ± 9.2 µM and the Vmax was 287 ± 26 pmol/mg protein/min.
